Test system: phosphorylated PKB (Ser473)
Assay: Western blot of active
Assay type: cell-based, human
Conditions: PANC-1, CFPAC-1 and HPAF-II cell lysates (all three cell lines); 1 μM wortmannin for 10 min prior to lysis

Compound: COC[C@H]1OC(=O)c2coc3c2[C@@]1(C)C1=C(C3=O)[C@@H]2CCC(=O)[C@@]2(C)C[C@H]1OC(C)=O [wortmannin]
- amount of phosphorylated Ser473 (pSer473) of PKB by Western blot: decreased
